Values joined by “and” are separate entries in the source; they are usually repeats but may differ in a detail not shown here. Equal values may be shown once. Read-outs that look alike come from different tables or passages of the source.
Legend:
Type in all cases: cell-based, human
[1] = system: 5 HMCLs with low HA Score; assay: Growth assay for myeloma cells (Cell Titer Glo, intracellular ATP), HMCLs with low HA Score; conditions: 4 days culture, read-out: median IC50
Experimental: (§1) Data are mean values plus or minus standard deviation (SD) of 5 experiments determined on sextuplet culture wells.
(§2) HMCLs were cultured for 4 days in 96-well flat-bottom microtiter plates in RPMI 1640 medium, 10% FCS, 2 ng/ml IL-6 culture medium (control), with graded Panobinostat (A), VPA […] or SAHA (C) concentrations. Data are mean values plus or minus standard deviation (SD) of 5 experiments determined on sextuplet culture wells.
(§3) Cell growth was evaluated by quantifying intracellular ATP amount with a Cell Titer Glo Luminescent Assay (Promega, Madison, Wis.) with a Centro LB 960 luminometer (Berthold Technologies, Bad Wildbad, Germany).
(§4) The inventors sought to determine whether HA Score could predict for the sensitivity of 10 HMCLs to HDAC inhibitor.
(§5) The inventors sought to determine whether HA Score could predict for the sensitivity of myeloma cells to clinical grade HDAC inhibitors {Neri, 2012 #3317}.

[2] = system: 5 HMCLs with the highest HA Score; assay: Growth assay for myeloma cells (Cell Titer Glo, intracellular ATP), HMCLs with high HA Score; conditions: 4 days culture, read-out: median IC50
Experimental: as §1, §2, §3, §4, §5

XG-6 = assay: Cell viability by trypan blue exclusion; conditions: 0.33 μM TSA, 24 h (Day 1), mean ± SD, 3 experiments
Experimental: (§6) The human MM cell lines XG-5, XG-6, XG-7, XG-20 and LP1 were grown in RPMI 1640 supplemented with 10% fetal bovine serum and 2 ng/mL recombinant IL-6. […] Control cells were cultured in the same conditions without TSA.

XG-20 = assay: Cell viability by trypan blue exclusion; conditions: 0.33 μM TSA, 24 h (Day 1), mean ± SD, 3 experiments
Experimental: as §6

XG-7 = assay: Cell viability by trypan blue exclusion; conditions: 0.33 μM TSA, 24 h (Day 1), mean ± SD, 3 experiments
Experimental: as §6

XG-5 = assay: Cell viability by trypan blue exclusion; conditions: 0.33 μM TSA, 24 h (Day 1), mean ± SD, 3 experiments
Experimental: as §6

LP1 = assay: Cell viability by trypan blue exclusion; conditions: 0.33 μM TSA, 24 h (Day 1), mean ± SD, 3 experiments
Experimental: as §6

[3] = system: primary MMCs of patients with high HA Score; assay: Mononuclear cell culture, CD138+ viable plasma cell count, patients with high HA Score; conditions: day 4; for Myeloma cell number/culture well: individual patients with high HA Score; for Myeloma cell number/culture well, Mean: mean of 8 patients with high HA Score
Experimental: (§7) At day 4 of culture, the cell count and the viability were determined and the percentage of CD138^+ viable plasma cells was determined by flow cytometry. Black color represents patients with high HA Score (N=8) and white represents patients with low HA Score values (N=5).
(§8) In each culture group, viability and cell counts were assayed and MMCs were stained with an anti-CD138-PE mAb (Immunotech, Marseille, France) as previously described (35).
(§9) The characteristics of patients with MM included in this study are described in Table 3.

[4] = system: primary MMCs of patients with low HA Score; assay: Mononuclear cell culture, CD138+ viable plasma cell count, patients with low HA Score; conditions: day 4; for Myeloma cell number/culture well: individual patients with low HA Score; for Myeloma cell number/culture well, Mean: mean of 5 patients with low HA Score
Experimental: as §7, §8, §9

Five HMCLs = assay: Cell viability of the five TSA treated HMCLs (summary statement); conditions: 0.33 μM TSA for 24 h
Experimental: as §6
The prognostic information of HDACi regulated genes was gathered within an histone acetylation score (HA Score), which was the sum of the beta coefficients of the Cox model weighted by ±1 according to the patient MMC signal above or below the probe set maxstat value as described (34).

[5] = Homo sapiens, 96 h, IL-6 2 ng/ml

## Cc1[nH]c2ccccc2c1CCNCc1ccc(/C=C/C(=O)NO)cc1 [Panobinostat, panobinostat]
[1]; [5]
  IC50: 3.16 nM
[2]; [5]
  IC50: 1.16 nM

## CC(/C=C/C(=O)NO)=C\[C@@H](C)C(=O)c1ccc(N(C)C)cc1 [TSA, trichostatin A]
[1]; IL-6 2 ng/ml
  IC50: 52.3 nM
[2]; IL-6 2 ng/ml
  IC50: 11 nM
XG-6
  Cell viability (%): 100 ± 1%
XG-20
  Cell viability (%): 100 ± 1%
XG-7
  Cell viability (%): 100 ± 0%
XG-5
  Cell viability (%): 70 ± 3%
LP1
  Cell viability (%): 100 ± 0%
[3]; 5.1 nM TSA
  Myeloma cell number/culture well: 43320 and 115520 and 72200 and 83752 and 19950 and 37544 and 48249 and 78844
  Myeloma cell number/culture well, Mean: 62422
[3]; 10.3 nM TSA
  Myeloma cell number/culture well: 31086 and 45216 and 50868 and 25434 and 12170 and 33912 and 38249 and 41860
  Myeloma cell number/culture well, Mean: 34849
[3]; 20.7 nM TSA
  Myeloma cell number/culture well: 22880 and 20592 (2×) and 38896 and 7650 and 18304 and 29064 and 32752
  Myeloma cell number/culture well, Mean: 23841
[3]; 41.3 nM TSA
  Myeloma cell number/culture well: 7250 (2×) and 29000 and 18850 and 11600 and 1736 and 5238 and 29790
  Myeloma cell number/culture well, Mean: 13839
[4]; 5.1 nM TSA
  Myeloma cell number/culture well: 72200 and 60648 and 14750 and 306768 and 19100
  Myeloma cell number/culture well, Mean: 94693
[4]; 10.3 nM TSA
  Myeloma cell number/culture well: 64998 and 62172 and 18486 and 254478 and 19458
  Myeloma cell number/culture well, Mean: 83918
[4]; 20.7 nM TSA
  Myeloma cell number/culture well: 54912 and 41184 and 14328 and 243978 and 18168
  Myeloma cell number/culture well, Mean: 74514
[4]; 41.3 nM TSA
  Myeloma cell number/culture well: 33350 and 26100 and 12765 and 235040 and 18876
  Myeloma cell number/culture well, Mean: 65226
Five HMCLs
  effect on myeloma cell viability: did not affect myeloma cell viability

## CCCC(CCC)C(=O)O [VPA, valproic acid]
[1]; Homo sapiens, 96 h
  IC50: 430 nM
[2]; Homo sapiens, 96 h
  IC50: 280 nM

Reference: patent US10174380B2, “Methods for predicting multiple myeloma treatment response” (INSERM (INSTITUT NATIONAL DE LA SANTE ET DE LA RECHERCHE …, priority 2012, dated 2019)
